Reference: patent US9642806B2, “Antifungal compositions with improved bioavailability” (Janssen Pharmaceutica N.V., priority 1996, dated 2017)

Tests used:
[1] = Thermal stability at melt-extrusion temperatures; type: physicochemical; conditions: temperatures up to 300° C.
Protocol: One of the most important parameters of melt extrusion is the temperature at which the melt-extruder is operating. […] At temperatures lower than 120° C., itraconazole will not dissolve completely in most water-soluble polymers and the extrudate will not have the required bioavailability. In addition, the process is difficult because of the high viscosity of the mixture. At temperatures of more than 300° C. the water-soluble polymer may decompose to an unacceptable level.

[2] = Solubility in aqueous media (USP definition); type: physicochemical; conditions: water; USP definition: more than 10,000 parts of solvent for 1 part of solute
Source text: The solvent referred to herein is water.

CCC(C)n1ncn(-c2ccc(N3CCN(c4ccc(OCC5COC(Cn6cncn6)(c6ccc(Cl)cc6Cl)O5)cc4)CC3)cc2)c1=O (racemic) [itraconazole, (±)-cis-4-[4-[4-[4-[[2-(2,4-dichlorophenyl)-2-(1H-1,2,4-triazol-1-yl-methyl)-1,3-dioxolan-4-yl]methoxy]phenyl]-1-piperazinyl]phenyl]-2,4-dihydro-2-(1-methylpropyl)-3H-1,2,4-triazol-3-one]
thermal stability (decomposition) [1]: thermally very stable | solubility in aqueous media [2]: practically insoluble
